{"source": "paper PMC12295124", "about": "“Quercetin, Catechin, and Diosmin as Modulators of Haloperidol–HSA Interactions: A Biophysical and Computational Study” (International Journal of Molecular Sciences, 2025)", "biological_target": "T1, human serum albumin (Homo sapiens, UniProt P02768)", "T1 construct": "gene ALB", "T1 sequence (P02768 25-609)": "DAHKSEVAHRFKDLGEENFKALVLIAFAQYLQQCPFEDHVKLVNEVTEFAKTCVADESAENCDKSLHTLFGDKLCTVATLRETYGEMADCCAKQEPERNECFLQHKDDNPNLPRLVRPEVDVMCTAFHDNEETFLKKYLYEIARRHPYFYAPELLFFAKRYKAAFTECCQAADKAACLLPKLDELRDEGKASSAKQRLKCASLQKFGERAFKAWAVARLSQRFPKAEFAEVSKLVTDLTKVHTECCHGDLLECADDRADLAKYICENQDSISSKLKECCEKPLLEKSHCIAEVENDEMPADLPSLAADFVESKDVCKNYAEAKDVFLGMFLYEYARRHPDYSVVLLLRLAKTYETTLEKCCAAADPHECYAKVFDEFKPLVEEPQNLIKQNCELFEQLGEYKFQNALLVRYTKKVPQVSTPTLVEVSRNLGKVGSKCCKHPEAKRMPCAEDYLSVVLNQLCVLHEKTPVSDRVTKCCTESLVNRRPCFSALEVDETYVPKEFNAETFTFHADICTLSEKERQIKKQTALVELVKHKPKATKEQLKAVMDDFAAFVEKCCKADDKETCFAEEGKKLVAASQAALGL", "test": "intrinsic Trp fluorescence quenching (excitation […] nm, […] K), double-log plot; Kb is an association constant", "assay_type": "binding", "details": "read-out: Kb/dm^3 mol^-1 (converted)"}
{"smiles": "O=C(CCCN1CCC(O)(c2ccc(Cl)cc2)CC1)c1ccc(F)cc1", "note": "[HPD, haloperidol]", "values": [{"measurement": "Kd", "result": 225, "unit": "µM"}]}
